How the values were obtained:
[1] = tested on: BaF3-FL KIT D816V or BaF3-FL KIT V560G/D816V cell line; assay: Cell-based assays of c-Kit mutant kinase activity (cell proliferation, ATPlite); conditions: at least one of the c-kit cell assays of Example 7
Procedure: The c-Kit mutant D816V inhibitors were assessed using an engineered BaF3-FL KIT D816V or BaF3-FL KIT V560G/D816V cell line. The BaF3-FL KIT D816V cell lines were created by introduction of KIT mutant (D816V) full length constructs that render the cells dependent on the introduced kinase for growth. Inhibitors of c-Kit mutant D816V kinase reduce or eliminate the mediated c-kit mutant D816V kinase activation, resulting in reduced cell proliferation of the BaF3-FL Kit mutant D816V cells. This inhibition is measured by the effect of compound concentration on cell growth to assess IC50 values. BaF3-FL KIT D816V cells were seeded at 1×10^4 cells per well of a 96 well cell culture plate in 50 μl of cell culture medium of RPMI Medium 1× (Invitrogen #11875-093) supplemented with 10% FBS (Invitrogen #10438), 1% Non Essential Amino Acids (Invitrogen #11140), 1% Penicillin Streptomycin (Invitrogen #15140), 1% L-Glutamine (Invitrogen #25030-081). Compounds were dissolved in DMSO at a concentration of 5 mM and were serially diluted 1:3 for a total of eight points and added to the cells to a final maximum concentration of 10 μM in 100 μl cell culture medium (final concentration 0.2% DMSO). Cells were also treated with Dasatinib as a positive control. The cells were incubated at 37° C., 5% CO2 for three days. ATPlite Buffer (Perkin Elmer #6016739) and substrate were equilibrated to room temperature, and enzyme/substrate Recombinant Firefly Luciferase/D-Luciferin was reconstituted. The cell plates were equilibrated to room temperature for 30 minutes, then lysed by addition of 25 μL per well of the ATPlite Reagent. The plate was mixed for 5 minutes on a plate shaker to lyse the cells. The plates were read on a Tecan Safire using Luminescence protocol modified to read 0.1s per well. The luminescence reading assesses the ATP content, which correlates directly with cell number such that the reading as a function of compound concentration is used to determine the IC50 value.
Plasmids P75635 and P75565 were engineered for mammalian cell expression. In both plasmids, full-length human v-kit Hardy-Zuckerman 4 feline sarcoma viral oncogene homolog gene (NCBI accession NM_000222, KIT, residues M1-V976) was subcloned into the pCI-Neo vector (Promega E1841). Plasmid P75635 contains the mutation of residue Aspartic acid 816 to Valine. Plasmid P75565 contains the double mutation of residues Valine 560 to Glycine and Aspartic acid 816 to Valine. The pCI-neo Mammalian Expression Vector carries the human cytomegalovirus (CMV) immediate-early enhancer/promoter region to promote constitutive expression of KIT and contains the neomycin phosphotransferase gene, a selectable marker.
It is understood that the results of these assays may vary as assay conditions are varied. Inhibition levels determined under the conditions described herein represent a relative activity for the compounds tested under the specific conditions employed. The cell based assays are likely to show variability due to the complexity of the system and the sensitivity thereof to any changes in the assay conditions. […] In some instances, the compounds were not tested in all of the assays, or assay results were not valid.

c-Kit kinase = c-Kit kinase (Homo sapiens (Human), UniProt P10721); assay: c-Kit biochemical assay (AlphaScreen kinase activity)
Chain of c-Kit kinase (P10721 26-976): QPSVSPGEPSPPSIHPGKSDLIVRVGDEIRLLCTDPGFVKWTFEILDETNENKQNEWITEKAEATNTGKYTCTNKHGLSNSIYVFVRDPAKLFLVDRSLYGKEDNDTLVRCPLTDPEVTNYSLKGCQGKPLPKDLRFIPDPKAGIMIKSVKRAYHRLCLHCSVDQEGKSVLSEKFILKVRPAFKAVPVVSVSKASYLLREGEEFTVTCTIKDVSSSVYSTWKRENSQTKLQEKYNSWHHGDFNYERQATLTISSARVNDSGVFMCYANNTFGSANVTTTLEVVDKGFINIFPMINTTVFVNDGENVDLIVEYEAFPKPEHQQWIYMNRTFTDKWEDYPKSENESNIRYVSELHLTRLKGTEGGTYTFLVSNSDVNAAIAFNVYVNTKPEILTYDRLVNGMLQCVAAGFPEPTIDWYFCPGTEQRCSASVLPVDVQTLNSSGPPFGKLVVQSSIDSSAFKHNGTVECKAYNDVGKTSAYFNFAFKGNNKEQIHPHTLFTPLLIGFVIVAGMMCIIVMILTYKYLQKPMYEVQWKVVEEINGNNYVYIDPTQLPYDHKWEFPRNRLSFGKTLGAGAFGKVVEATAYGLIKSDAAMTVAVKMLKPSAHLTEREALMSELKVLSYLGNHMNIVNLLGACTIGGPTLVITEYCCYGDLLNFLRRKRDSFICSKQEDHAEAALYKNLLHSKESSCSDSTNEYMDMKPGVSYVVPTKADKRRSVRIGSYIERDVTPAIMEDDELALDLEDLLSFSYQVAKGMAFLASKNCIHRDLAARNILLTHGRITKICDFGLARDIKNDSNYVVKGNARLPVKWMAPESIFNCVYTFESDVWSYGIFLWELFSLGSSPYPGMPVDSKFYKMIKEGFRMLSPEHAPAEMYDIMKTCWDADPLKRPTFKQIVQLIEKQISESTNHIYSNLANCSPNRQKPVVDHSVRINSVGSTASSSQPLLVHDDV
Procedure: Assays for biochemical cell-based activity of c-kit kinase are known in the art, for example, as described in U.S. Pat. Nos. 7,498,342 and 7,846,941, the disclosures of which are hereby incorporated by reference as it relates to such assays. The c-kit (or kinase domain thereof) is an active kinase in AlphaScreen. IC50 values are determined with respect to inhibition of c-Kit kinase activity, where inhibition of phosphorylation of a peptide substrate is measured as a function of compound concentration. Compounds to be tested were dissolved in DMSO to a concentration of 30 mM. These were diluted 30 μl into 130 μl of DMSO (4 mM) and 1 μl was added to an assay plate. These were then serially diluted 1:3 (50 μl to 100 μl DMSO) for a total of 8 points. Plates were prepared such that each kinase reaction is 30 μl in 1× kinase buffer (50 mM HEPES, pH 7.2, 5 mM MgCl2, 5 mM MnCl2, 0.01% NP-40, 0.2% BSA), 5% DMSO and 10 μM ATP. Substrate was 100 nM biotin-(E4Y)3 (Open Source Biotech, Inc.). C-kit kinase was at 0.1 ng per sample. After incubation of the kinase reaction for 1 hour at room temperature, 5 μl of donor beads (Streptavidin coated beads (Perkin Elmer Life Science) final concentration 1 μg/ml) in stop buffer (50 mM EDTA in 1× kinase buffer) was added, the sample was mixed and incubated for 30 minutes at room temperature before adding […] of acceptor beads (PY30 coated beads (Perkin Elmer Life Science) final concentration 1 μg/ml) in stop buffer. The samples were incubated for 60 minutes at room temperature and the signal per well was read on AlphaQuest reader. Phosphorylated substrate results in binding of the PY30 antibody and association of the donor and acceptor beads such that signal correlates with kinase activity. The signal vs. compound concentration was used to determine the IC50.
Compounds were also tested using a similar assay with a 10-fold higher ATP concentration. For these samples, compounds to be tested were dissolved in DMSO to a concentration of 30 mM. These were diluted 30 μl into 130 μl of DMSO (4 mM) and 1 μl was added to an assay plate. These were then serially diluted 1:3 (50 μl to 100 μl DMSO) for a total of 8 points. Plates were prepared such that each kinase reaction is 30 μl in 1× kinase buffer (25 mM HEPES, pH 7.5, 2 mM MgCl2, 2 mM MnCl2, 0.01% […], 1 mM DTT, and 0.001% BSA), 5% DMSO and 100 μM ATP. Substrate was 30 nM biotin-(E4Y)10 (Upstate Biotech, Cat#12-440). C-kit kinase was at 1 ng per sample. After incubation of the kinase reaction for 1 hour at room temperature, 5 μl of donor beads (Streptavidin coated beads (Perkin Elmer Life Science) final concentration 10 μg/ml) in stop buffer (25 mM HEPES pH 7.5, 100 mM EDTA, 0.3% BSA) was added, the sample was mixed and incubated for 30 minutes at room temperature before adding 5 μl of acceptor beads (PY30 coated beads (Perkin Elmer Life Science) final concentration 10 μg/ml) in stop buffer. The samples were incubated for 60 minutes at room temperature and the signal per well was read on AlphaQuest or Envision reader (Perkin Elmer Life Science). Phosphorylated substrate results in binding of the PY30 antibody and association of the donor and acceptor beads such that signal correlates with kinase activity. The signal vs. compound concentration was used to determine the IC50.
The c-kit enzyme used in the above assay was either obtained from Cell Signaling Technology (Cat. #7754) or was prepared as follows: A plasmid encoding kit (DNA and encoded protein sequences shown below) was engineered using common polymerase chain reaction (PCR) methods. Complementary DNA cloned from various human tissues were purchased from Invitrogen, and these were used as substrates in the PCR reactions. Specific custom synthetic oligonucleotide primers were designed to initiate the PCR product, and also to provide the appropriate restriction enzyme cleavage sites for ligation with the plasmids. […]

Compound CCC1(c2nc(C)c(-c3ccc(OC)c(C)c3)[nH]2)CCN(c2ncnc3[nH]c(C)cc23)CC1 [P-3141, 4-[4-ethyl-4-[5-(4-methoxy-3-methyl-phenyl)-4-methyl-1H-imidazol-2-yl]-1-piperidyl]-6-methyl-7H-pyrrolo[2,3-d]pyrimidine] has an IC50 [1] of less than 10 µM and an IC50 (c-Kit kinase) of 1 to 10 µM.
In the case of COc1cccc(-c2[nH]c(C3CCN(c4ncnc5[nH]c(-c6ccc(C#N)cc6)cc45)CC3)nc2C(F)(F)F)c1 [P-3124, 4-[4-[4-[5-(3-methoxyphenyl)-4-(trifluoromethyl)-1H-imidazol-2-yl]-1-piperidyl]-7H-pyrrolo[2,3-d]pyrimidin-6-yl]benzonitrile], the IC50 [1] is reported as less than 10 µM and the IC50 (c-Kit kinase) is reported as 0.0001 to 1 µM.
With CCOc1ccc(-c2[nH]c(C3CCN(c4ncnc5[nH]c(-c6cnn(C(F)F)c6)cc45)CC3)nc2C)cc1C [P-3139, 6-[1-(difluoromethyl)pyrazol-4-yl]-4-[4-[5-(4-ethoxy-3-methyl-phenyl)-4-methyl-1H-imidazol-2-yl]-1-piperidyl]-7H-pyrrolo[2,3-d]pyrimidine] the IC50 [1] was less than 10 µM and the IC50 (c-Kit kinase) was 0.0001 to 1 µM.
COc1cc(-c2[nH]c(C3CCN(c4ncnc5[nH]c(-c6ccc(C#N)cc6)cc45)CC3)nc2C)ccc1C [P-3106, 4-[4-[4-[5-(3-methoxy-4-methyl-phenyl)-4-methyl-1H-imidazol-2-yl]-1-piperidyl]-7H-pyrrolo[2,3-d]pyrimidin-6-yl]benzonitrile] showed an IC50 [1] of less than 10 µM and an IC50 (c-Kit kinase) of 1 to 10 µM.
COc1ccc(-c2[nH]c(C3(C)CCN(c4ncnc5[nH]c(-c6ccc(OC)nc6)cc45)CC3)nc2C)cc1 [P-3156, 4-[4-[5-(4-methoxyphenyl)-4-methyl-1H-imidazol-2-yl]-4-methyl-1-piperidyl]-6-(6-methoxy-3-pyridyl)-7H-pyrrolo[2,3-d]pyrimidine] was tested, and the IC50 [1] was less than 10 µM and the IC50 (c-Kit kinase) was 0.0001 to 1 µM.
With COc1cccc(-c2[nH]c(C3(C)CCN(c4ncnc5[nH]c(-c6ccc(OC)nc6)cc45)CC3)nc2C)c1 [P-3169, 4-[4-[5-(3-methoxyphenyl)-4-methyl-1H-imidazol-2-yl]-4-methyl-1-piperidyl]-6-(6-methoxy-3-pyridyl)-7H-pyrrolo[2,3-d]pyrimidine] the IC50 [1] was less than 10 µM and the IC50 (c-Kit kinase) was 0.0001 to 1 µM.
COc1ccc(-c2[nH]c(C3CCN(c4ncnc5[nH]c(C)cc45)CC3)nc2C)cc1C [P-3128, 4-[4-[5-(4-methoxy-3-methyl-phenyl)-4-methyl-1H-imidazol-2-yl]-1-piperidyl]-6-methyl-7H-pyrrolo[2,3-d]pyrimidine] showed an IC50 [1] of less than 10 µM and an IC50 (c-Kit kinase) of 1 to 10 µM.
Cc1cc2c(N3CCC(c4nc(C)c(-c5ccc6c(c5)OC(F)(F)O6)[nH]4)CC3)ncnc2[nH]1 [P-3127, 4-[4-[5-(2,2-difluoro-1,3-benzodioxol-5-yl)-4-methyl-1H-imidazol-2-yl]-1-piperidyl]-6-methyl-7H-pyrrolo[2,3-d]pyrimidine] showed an IC50 [1] of less than 10 µM and an IC50 (c-Kit kinase) of 1 to 10 µM.
For COc1cc(-c2cc3c(N4CCC(c5nc(C)c(-c6ccc7c(c6)OC(F)(F)O7)[nH]5)CC4)ncnc3[nH]2)ccn1 [P-3111, 4-[4-[5-(2,2-difluoro-1,3-benzodioxol-5-yl)-4-methyl-1H-imidazol-2-yl]-1-piperidyl]-6-(2-methoxy-4-pyridyl)-7H-pyrrolo[2,3-d]pyrimidine], the IC50 [1] was less than 10 µM and the IC50 (c-Kit kinase) was 10 to 300 µM.
CCOc1ccc(-c2[nH]c(C3(CC)CCN(c4ncnc5[nH]c(C)cc45)CC3)nc2C)cc1 [P-3145, 4-[4-[5-(4-ethoxyphenyl)-4-methyl-1H-imidazol-2-yl]-4-ethyl-1-piperidyl]-6-methyl-7H-pyrrolo[2,3-d]pyrimidine] gave an IC50 [1] of less than 10 µM and an IC50 (c-Kit kinase) of 1 to 10 µM.
Compound COc1ccc(-c2cc3c(N4CCC(C)(c5nc(C)c(-c6ccc(OC)c(C)c6)[nH]5)CC4)ncnc3[nH]2)cn1 [P-3157, 4-[4-[5-(4-methoxy-3-methyl-phenyl)-4-methyl-1H-imidazol-2-yl]-4-methyl-1-piperidyl]-6-(6-methoxy-3-pyridyl)-7H-pyrrolo[2,3-d]pyrimidine] has an IC50 [1] of less than 10 µM and an IC50 (c-Kit kinase) of 0.0001 to 1 µM.
In the case of COc1ccc(-c2[nH]c(C3CCN(c4ncnc5[nH]c(-c6ccc(C#N)cc6)cc45)CC3)nc2C)cn1 [P-3112, 4-[4-[4-[5-(6-methoxy-3-pyridyl)-4-methyl-1H-imidazol-2-yl]-1-piperidyl]-7H-pyrrolo[2,3-d]pyrimidin-6-yl]benzonitrile], the IC50 [1] is reported as less than 10 µM and the IC50 (c-Kit kinase) is reported as 0.0001 to 1 µM.
In the case of Cc1nc(C2(C)CCN(c3ncnc4[nH]c(-c5cnn(C(F)F)c5)cc34)CC2)[nH]c1-c1ccc2c(c1)OCO2 [P-3155, 4-[4-[5-(1,3-benzodioxol-5-yl)-4-methyl-1H-imidazol-2-yl]-4-methyl-1-piperidyl]-6-[1-(difluoromethyl)pyrazol-4-yl]-7H-pyrrolo[2,3-d]pyrimidine], the IC50 [1] is reported as less than 10 µM and the IC50 (c-Kit kinase) is reported as 0.0001 to 1 µM.
With CCOc1cc(-c2[nH]c(C3CCN(c4ncnc5[nH]c(-c6ccnc(OC)c6)cc45)CC3)nc2C)ccc1C [P-3096, 4-[4-[5-(3-ethoxy-4-methyl-phenyl)-4-methyl-1H-imidazol-2-yl]-1-piperidyl]-6-(2-methoxy-4-pyridyl)-7H-pyrrolo[2,3-d]pyrimidine] the IC50 [1] was less than 10 µM and the IC50 (c-Kit kinase) was 0.0001 to 1 µM.
COc1cc(-c2cc3c(N4CCC(c5nc(C)c(-c6ccc(F)cc6)[nH]5)CC4)ncnc3[nH]2)ccn1 [P-3007, 4-[4-[5-(4-fluorophenyl)-4-methyl-1H-imidazol-2-yl]-1-piperidyl]-6-(2-methoxy-4-pyridyl)-7H-pyrrolo[2,3-d]pyrimidine] was tested, and the IC50 [1] was less than 10 µM and the IC50 (c-Kit kinase) was 1 to 10 µM.

From US9771369B2, “Compounds and methods for kinase modulation, and indications therefor” (Plexxikon Inc., priority 2014, dated 2017)
